# From patent publication US11679108B2, “Aromatic heterocyclic compound, and pharmaceutical composition and use thereof” (GUANGZHOU HENOVCOM BIOSCIENCE CO., LTD., priority 2018, dated 2023)
# Target: ATX (Homo sapiens, UniProt Q13822)
# Test: Analysis in vitro: LPC was used as substrate for screening enzyme activity (Amplex Red fluorescence)
# Assay type: biochemical
# Conditions: inhibitory activity against ATX, with LPC as substrate
# Source text: Analysis In Vitro: LPC was Used as Substrate for Screening Enzyme Activity
# Principle: Lysophosphatidylcholine (LPC) as substrate is hydrolyzed by using the activity of lysoPLD enzyme, to produce lysophosphatidic acid (LPA) and choline, which is oxidized to produce H2O2 under the action of choline oxidase. In presence of horse radish peroxidase (HPR), Amplex Red reagent is reacted with H2O2 in a quantitative chemistry ratio of 1 to 1, to produce strong fluorescence products, which are detected by a fluorescent quantitative test.
# Experimental procedures: the compounds to be tested were dissolved in DMSO, to prepare 10 mM of stock solution, which was diluted in a gradient concentration of 3 times with DMSO from 10 mM, to generate 10 concentration gradients. The reaction buffer solution was used for preparing a mixed solution 1 of 2 ng/μl ATX, 2 U/ml HRP and 0.2 U/ml choline oxidase in a final concentration. 20 μl of the above mixed solution 1 was added to each hole of an experiment board, […]. The compounds diluted with DMSO were transferred into an experiment board with Echo550. The reaction buffer solution was used for preparing a mixed solution 2 of […] LPC and 400 μM Amplex Red in a final concentration. 20 μl of the above mixed solution 2 was added to each hole of the experiment board. After addition, the experiment board was shook for 30 seconds on a shaker, and incubated for 30 minutes. Envision was used to read the fluorescence signals with an exciting light at 530 nm and emitted light at 590 nm. Inhibition ratio of the compounds to enzyme reaction was calculated according to the ratio of fluorescence, and IC50 of the compounds was analyzed and calculated by software, seeing Table 1.
row,IC50,Structure (SMILES)
1,≥ 1000 nM,CCc1nc2sc(N3CCN(S(C)(=O)=O)CC3)nn2c1N(C)c1nc(-c2ccc(F)cc2)c(C#N)s1 [Example 1]
2,500 to 1000 nM,"CCc1nc2sc(N3CCC4(CC3)CN(S(C)(=O)=O)C4)nn2c1N(C)c1nc(-c2ccc(F)cc2)c(C#N)s1 [Example 3, 2-{[6-ethyl-2-(4-(methylsulfonyl)-2,7-diazaspiro[3.5]nonan-7-yl)imidazo[2,1-b][1,3,4]thiadiazol-5-yl](methyl)amino}-4-(4-fluorophenyl)thiazole-5-carbonitrile]"
3,500 to 1000 nM,CCc1nc2sc(N3CC4(C3)CN(S(C)(=O)=O)C4)nn2c1N(C)c1nc(-c2ccc(F)cc2)c(C#N)s1 [Example 5]
4,100 to 500 nM,CCc1nc2sc(N3CC4(CN(CC(=O)N5CC(O)C5)C4)C3)nn2c1N(C)c1nc(-c2ccc(F)cc2)c(C#N)s1 [Example 6]
5,100 to 500 nM,"CCc1nc2sc(N3CCCC(N(C)S(C)(=O)=O)C3)nn2c1N(C)c1nc(-c2ccc(F)cc2)c(C#N)s1 (stereo not drawn) [Example 13, N-{1-[5-((5-cyano-4-(4-fluorophenyl)thiazol-2-yl)(methyl)amino)-6-ethylimidazo[2,1-b][1,3,4]thiadiazol-2-yl]piperidin-3-yl}-N-methylmethanesulfonamide]"
6,≥ 1000 nM,"CCc1nc2sc(C3CCN(S(C)(=O)=O)CC3)nn2c1N(C)c1nc(-c2ccc(F)cc2)c(C#N)s1 [Example 16, 2-{[6-ethyl-2-(1-(methylsulfonyl)piperidin-4-yl)imidazo[2,1-b][1,3,4]thiadiazol-5-yl](methyl)amino}-4-(4-fluorophenyl)-thiazole-5-carbonitrile]"
7,100 to 500 nM,"CCc1nc2sc(C3CCN(C(N)=O)CC3)nn2c1N(C)c1nc(-c2ccc(F)cc2)c(C#N)s1 [Example 18, 4-{5-[(5-cyano-4-(4-fluorophenyl)thiazol-2-yl](methyl)amino]-6-ethylimidazo[2,1-b][1,3,4]thiadiazol-2-yl}piperidine-1-carboxamide]"
8,100 to 500 nM,"CCc1nc2sc(N3CCC(N(C)C(=O)NC(C)(C)C)C3)nn2c1N(C)c1nc(-c2ccc(F)cc2)c(C#N)s1 (stereo not drawn) [Example 25, 3-tertbutyl-1-{1-[5-((5-cyano-4-(4-fluorophenyl)thiazol-2-yl)(methyl)amino)-6-ethylimidazo[2,1-b][1,3,4]thiadiazol-2-yl]pyrrolidin-3-yl}-1-methylurea]"
9,≥ 1000 nM,"CCc1nc2sc(N3CCCC(N(C)C(=O)NC(C)(C)C)C3)nn2c1N(C)c1nc(-c2ccc(F)cc2)c(C#N)s1 (stereo not drawn) [Example 26, 3-tert-butyl-1-{1-[5-((5-cyano-4-(4-fluorophenyl)thiazol-2-yl)(methyl)amino)-6-ethylimidazo[2,1-b][1,3,4]thiadiazol-2-yl]piperidin-3-yl}-1-methylurea]"
10,100 to 500 nM,"CCc1nc2sc(N3CCC(N(C)C(=O)NC4CC4)C3)nn2c1N(C)c1nc(-c2ccc(F)cc2)c(C#N)s1 (stereo not drawn) [Example 27, 1-{1-[5-((5-cyano-4-(4-fluorophenyl)thiazol-2-yl)(methyl)amino)-6-ethylimidazo[2,1-b][1,3,4]thiadiazol-2-yl}pyrrolidin-3-yl}-3-cyclopropyl-1-methylurea]"
11,100 to 500 nM,"CCc1nc2sc(N3CCC(N(C)S(=O)(=O)C4CC4)C3)nn2c1N(C)c1nc(-c2ccc(F)cc2)c(C#N)s1 (stereo not drawn) [Example 28, N-{1-[5-((5-cyano-4-(4-fluorophenyl)thiazol-2-yl)(methyl)amino)-6-ethylimidazo[2,1-b][1,3,4]thiadiazol-2-yl}pyrrolidin-3-yl}-N-methylcyclopropanesulfonamide]"
12,0.01 to 100 nM,"CCc1nc2sc(N3CCC(N(C)C(=O)NC)C3)nn2c1N(C)c1nc(-c2ccc(F)cc2)c(C#N)s1 (stereo not drawn) [Example 29, 1-{1-[5-((5-cyano-4-(4-fluorophenyl)thiazol-2-yl)(methyl)amino)-6-ethylimidazo[2,1-b][1,3,4]thiadiazol-2-yl}pyrrolidin-3-yl}-1,3-dimethylurea]"
